ChEMBL document CHEMBL5260834, “Benzomorphan skeleton, a versatile scaffold for different targets: A comprehensive review” (Eur J Med Chem, 2018)

Assays:
[1] = biological target: T1, Sigma non-opioid intracellular receptor 1 (Cavia porcellus, UniProt Q60492); experiment: Displacement of [3H]-(+)-pentazocine from sigma1 receptor in guinea pig brain membrane assessed as inhibition constant; format: cell membranes
[2] = biological target: T2, Sigma intracellular receptor 2 (Rattus norvegicus, UniProt Q5U3Y7); experiment: Displacement of [3H]DTG from sigma 2 receptor in rat liver membranes assessed as inhibition constant presence of dextrallorphan; format: cell membranes, Membrane
T2 sequence (Q5U3Y7 whole entry): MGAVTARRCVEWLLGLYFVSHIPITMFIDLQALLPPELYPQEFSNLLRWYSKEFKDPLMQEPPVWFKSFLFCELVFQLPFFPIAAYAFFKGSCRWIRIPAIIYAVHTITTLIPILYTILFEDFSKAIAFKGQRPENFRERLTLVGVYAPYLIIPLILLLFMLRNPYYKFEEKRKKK

[3] = biological target: T3, Sigma intracellular receptor 2 (Homo sapiens, UniProt Q5BJF2); experiment: Displacement of [3H]DTG from sigma 2 receptor (unknown origin) assessed as inhibition constant incubated for 120 mins in presence of (+)-SKF10047 by radioligand binding assay
T3 sequence (Q5BJF2 whole entry): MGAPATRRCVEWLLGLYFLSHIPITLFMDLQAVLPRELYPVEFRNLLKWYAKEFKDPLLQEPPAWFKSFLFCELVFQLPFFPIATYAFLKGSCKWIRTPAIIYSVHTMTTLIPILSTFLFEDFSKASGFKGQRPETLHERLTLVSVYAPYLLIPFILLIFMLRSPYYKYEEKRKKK

[4] = biological target: T1, Sigma non-opioid intracellular receptor 1; experiment: Displacement of [3H]-(+)-pentazocine from sigma1 receptor in guinea pig brain membrane assessed as inhibition constant measured for 150 mins in presence of haloperidol; format: cell membranes
Mu-type opioid receptor [5] = biological target: Mu-type opioid receptor (Rattus norvegicus, UniProt P33535); experiment: Displacement of [ 3H]-naloxone from rat brain membrane mu opioid receptor assessed as inhibition constant by radioligand binding assay; format: cell membranes
Mu-type opioid receptor (Rattus norvegicus, UniProt P33535), sequence (P33535 whole entry): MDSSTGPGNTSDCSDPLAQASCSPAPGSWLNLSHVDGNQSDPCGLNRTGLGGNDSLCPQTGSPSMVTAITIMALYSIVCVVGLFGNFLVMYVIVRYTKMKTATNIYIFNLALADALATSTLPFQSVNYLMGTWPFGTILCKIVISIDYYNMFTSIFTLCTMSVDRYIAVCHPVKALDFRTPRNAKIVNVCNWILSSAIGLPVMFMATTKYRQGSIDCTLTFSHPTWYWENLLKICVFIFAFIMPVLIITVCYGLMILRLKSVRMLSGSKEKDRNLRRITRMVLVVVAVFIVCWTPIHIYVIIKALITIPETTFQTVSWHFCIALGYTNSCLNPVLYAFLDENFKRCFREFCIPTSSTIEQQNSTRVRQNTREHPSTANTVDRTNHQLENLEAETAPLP

[6] = biological target: T4, Sigma non-opioid intracellular receptor 1 (Homo sapiens, UniProt Q99720); experiment: Inhibition of sigma 1 receptor (unknown origin)
T4 sequence (Q99720 whole entry): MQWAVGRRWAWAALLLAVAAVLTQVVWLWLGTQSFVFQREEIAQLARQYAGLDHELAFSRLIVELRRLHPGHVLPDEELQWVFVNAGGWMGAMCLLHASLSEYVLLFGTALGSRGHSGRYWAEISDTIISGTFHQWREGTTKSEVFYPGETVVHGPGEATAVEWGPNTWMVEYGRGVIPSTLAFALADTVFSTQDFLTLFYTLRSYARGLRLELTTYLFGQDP

[7] = biological target: T1, Sigma non-opioid intracellular receptor 1; experiment: Displacement of [3H]-(+)-pentazocine from sigma1 receptor in guinea pig brain membrane assessed as inhibition constant measured after 120 mins by scintillation counting method; format: cell membranes
Mu-type opioid receptor [8] = biological target: T5, Mu-type opioid receptor (Homo sapiens, UniProt P35372); experiment: Displacement of [3H]-DAMGO from human MOR receptor assessed as inhibition constant by cheng-prusoff equation assay
T5 sequence (P35372 whole entry): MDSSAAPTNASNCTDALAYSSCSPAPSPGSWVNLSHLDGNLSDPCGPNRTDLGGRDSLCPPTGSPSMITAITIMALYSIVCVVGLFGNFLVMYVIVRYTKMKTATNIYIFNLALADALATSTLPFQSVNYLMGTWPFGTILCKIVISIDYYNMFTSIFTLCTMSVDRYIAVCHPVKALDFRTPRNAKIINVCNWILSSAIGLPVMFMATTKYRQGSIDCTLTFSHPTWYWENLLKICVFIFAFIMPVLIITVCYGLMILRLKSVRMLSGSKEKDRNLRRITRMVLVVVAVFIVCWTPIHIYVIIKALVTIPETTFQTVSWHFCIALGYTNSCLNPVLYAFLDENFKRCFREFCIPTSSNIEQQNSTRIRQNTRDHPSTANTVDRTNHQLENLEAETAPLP

[9] = Ratio of Ki for displacement of[3H]-DAMGO from human MOR receptor to Ki for displacement of [3H]-(+)-pentazocine from sigma1 receptor in guinea pig brain membrane; format: cell membranes
[10] = biological target: T3, Sigma intracellular receptor 2; experiment: Displacement of [3H]DTG from sigma 2 receptor (unknown origin) assessed as inhibition constant
[11] = Ratio of Ki for displacement of [3H]DTG from sigma 2 receptor (unknown origin) to Ki for displacement of [3H]-(+)-pentazocine from sigma1 receptor in guinea pig brain membrane; format: cell membranes
[12] = biological target: T1, Sigma non-opioid intracellular receptor 1; experiment: Displacement of [3H]-(+)-pentazocine from sigma1 receptor in guinea pig brain membrane assessed as inhibition constant measured for 150 mins; format: cell membranes
[13] = biological target: T3, Sigma intracellular receptor 2; experiment: Displacement of [3H]DTG from sigma 2 receptor (unknown origin) assessed as inhibition constant in presence of haloperidol measured for 120 mins by scintillation counting analysis
[14] = Ratio of Ki for displacement of [3H]DTG from sigma 2 receptor (unknown origin) assessed as inhibition constant in presence of haloperidol to Ki for displacement of [3H]-(+)-pentazocine from sigma1 receptor in guinea pig brain membrane assessed as inhibition constant; format: cell membranes
[15] = biological target: Glutamate [NMDA] receptor; experiment: Antagonist activity at NMDA receptor (unknown origin) assessed as inhibition constant; format: protein-complex assay, Homo sapiens
[16] = Toxicity in mouse assessed as induction of lethality; conditions: in vivo
[17] = Half life in mouse; format: ADME, organism-based; conditions: in vivo
Mu-type opioid receptor [18] = biological target: T5, Mu-type opioid receptor; experiment: Displacement of [3H]-Diprenorphine from MOR receptor (unknown origin) assessed as inhibition constant
[19] = biological target: Delta-type opioid receptor (Homo sapiens, UniProt P41143); experiment: Displacement of [3H]-Diprenorphine from DOR receptor (unknown origin) assessed as inhibition constant
Delta-type opioid receptor, sequence (P41143 whole entry): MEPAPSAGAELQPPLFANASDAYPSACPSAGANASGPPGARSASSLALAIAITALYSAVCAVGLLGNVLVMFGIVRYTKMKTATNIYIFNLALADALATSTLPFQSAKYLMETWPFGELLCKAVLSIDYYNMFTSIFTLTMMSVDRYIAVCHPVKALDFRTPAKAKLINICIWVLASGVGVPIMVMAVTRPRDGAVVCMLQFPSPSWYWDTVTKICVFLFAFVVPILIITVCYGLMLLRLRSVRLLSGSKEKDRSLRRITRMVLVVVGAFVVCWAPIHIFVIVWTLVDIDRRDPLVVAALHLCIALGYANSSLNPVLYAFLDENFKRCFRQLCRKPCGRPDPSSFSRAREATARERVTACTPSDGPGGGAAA

[20] = biological target: T6, Kappa-type opioid receptor (Homo sapiens, UniProt P41145); experiment: Displacement of [3H]-U69593 from KOR receptor (unknown origin) assessed as inhibition constant
T6 sequence (P41145 whole entry): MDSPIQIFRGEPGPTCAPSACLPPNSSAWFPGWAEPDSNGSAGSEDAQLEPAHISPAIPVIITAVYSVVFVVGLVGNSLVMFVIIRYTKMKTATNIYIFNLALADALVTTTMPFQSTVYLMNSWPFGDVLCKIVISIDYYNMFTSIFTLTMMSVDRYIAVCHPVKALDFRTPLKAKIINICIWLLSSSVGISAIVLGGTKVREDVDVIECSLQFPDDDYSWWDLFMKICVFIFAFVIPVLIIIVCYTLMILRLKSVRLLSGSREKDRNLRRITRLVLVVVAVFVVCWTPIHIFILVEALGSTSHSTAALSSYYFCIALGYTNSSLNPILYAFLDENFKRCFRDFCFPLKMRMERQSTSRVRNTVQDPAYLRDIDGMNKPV

[21] = biological target: T6, Kappa-type opioid receptor; experiment: Displacement of [3H]-diprenorphine from KOR receptor (unknown origin) assessed as inhibition constant in presence of D-Ala-N-MePhe-Gly-ol-enkephalin and D-Ala-DLeu-enkephalin
[22] = biological target: T4, Sigma non-opioid intracellular receptor 1; experiment: Displacement of [3H]-(+)-pentazocine from sigma1 receptor (unknown origin) assessed as inhibition constant
[23] = biological target: T3, Sigma intracellular receptor 2; experiment: Displacement of [3H]DTG from sigma 2 receptor (unknown origin) assessed as inhibition constant in presence of (+)-SKF10047 by radioligand binding assay
[24] = biological target: T4, Sigma non-opioid intracellular receptor 1; experiment: Agonist activity at sigma1 receptor (unknown origin); conditions: filed as agonist
[25] = Ratio of Ki for displacement of [3H]-(+)-pentazocine from sigma1 receptor in guinea pig brain membrane assessed as inhibition constant to Ki for displacement of [3H]-(+)-pentazocine from sigma1 receptor in guinea pig brain membrane assessed as inhibition constant; format: cell membranes; design: reference not given here
[26] = biological target: T2, Sigma intracellular receptor 2; experiment: Displacement of [3H]DTG from sigma 2 receptor in rat liver membranes assessed as inhibition constant presence of haloperidol by scintillation counting analysis; format: cell membranes, Membrane
[27] = Ratio of Ki for displacement of [3H]DTG from sigma 2 receptor in rat liver membranes assessed as inhibition constant presence of haloperidol by scintillation counting analysis to Ki for displacement of [3H]-(+)-pentazocine from sigma 1 receptor in guinea pig brain membrane assessed as inhibition constant in presence of haloperidol; format: cell membranes
[28] = Displacement of 3[H]BTX from rat cerebral cortex sodium channel assessed as inhibition constant; format: tissue-based
[29] = biological target: Glutathione hydrolase 1 proenzyme (Homo sapiens, UniProt P19440); experiment: Inhibition of human GGT1
Glutathione hydrolase 1 proenzyme, sequence (P19440 1-380 limits assumed): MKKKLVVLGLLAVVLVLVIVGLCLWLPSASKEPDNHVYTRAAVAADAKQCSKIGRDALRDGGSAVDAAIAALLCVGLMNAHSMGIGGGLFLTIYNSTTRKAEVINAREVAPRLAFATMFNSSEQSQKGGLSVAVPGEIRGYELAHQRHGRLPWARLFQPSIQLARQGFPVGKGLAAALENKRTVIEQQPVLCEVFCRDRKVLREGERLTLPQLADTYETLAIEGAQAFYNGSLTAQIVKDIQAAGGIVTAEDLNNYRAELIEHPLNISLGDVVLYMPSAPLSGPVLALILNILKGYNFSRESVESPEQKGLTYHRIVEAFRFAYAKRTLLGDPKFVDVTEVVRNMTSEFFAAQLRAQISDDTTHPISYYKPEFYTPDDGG
Glutathione hydrolase 1 proenzyme, sequence (P19440 381-569 limits assumed): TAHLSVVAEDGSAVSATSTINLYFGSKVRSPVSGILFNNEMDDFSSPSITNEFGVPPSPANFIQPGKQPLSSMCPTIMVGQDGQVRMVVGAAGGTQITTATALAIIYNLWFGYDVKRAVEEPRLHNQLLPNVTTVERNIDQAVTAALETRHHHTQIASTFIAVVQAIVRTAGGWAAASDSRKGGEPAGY

Mus musculus [30] = experiment: Anticonvulsant activity in mouse assessed as protection against maximal electroshock seizures […] by maximum electroshock seizure test; format: functional
[31] = biological target: T3, Sigma intracellular receptor 2
Description: Inhibition of sigma 2 receptor (unknown origin)

Mus musculus [32] = experiment: Anticonvulsant activity in mouse assessed as protection against maximal electroshock seizures at 5 mg/kg, sc by maximum electroshock seizure test; format: functional; conditions: read-out: ID50 (the source's name)

T1 sequence (Q60492 whole entry): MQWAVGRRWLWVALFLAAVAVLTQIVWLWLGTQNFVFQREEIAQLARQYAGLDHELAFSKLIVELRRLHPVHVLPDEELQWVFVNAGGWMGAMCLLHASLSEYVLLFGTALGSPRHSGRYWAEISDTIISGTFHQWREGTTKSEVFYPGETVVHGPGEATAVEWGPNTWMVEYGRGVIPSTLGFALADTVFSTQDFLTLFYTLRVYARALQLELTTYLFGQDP

CC(C)=CCN1CC[C@@]2(C)c3c(ccc(O)c3Cl)C[C@H]1[C@H]2C
Ki [1]: 2.62 nM | Ki [2]: 4960 nM

C[C@@H]1[C@@H]2Cc3ccc(O)cc3[C@]1(C)CCN2CCN1CCCC1
Ki [3]: 260 nM | Ki [4]: 7.4 nM | Ki (Mu-type opioid receptor [5]): 3800 nM

C[C@@H]1[C@@H]2Cc3cc(I)c(O)cc3[C@]1(C)CCN2Cc1ccccc1
Ki [1]: 231 nM | Ki [2]: 597 nM

C=CCCCCN1CC[C@]2(C)c3cc(O)ccc3C[C@@H]1[C@@H]2C
Ki [6]: 80 nM

C=CCCCN1CC[C@]2(C)c3cc(O)ccc3C[C@@H]1[C@@H]2C
Ki [6]: 180 nM

C[C@@H]1[C@@H]2Cc3ccc(O)cc3[C@]1(C)CCN2CCN1CCCCCC1
Ki [3]: 151 nM | Ki [4]: 20.1 nM | Ki (Mu-type opioid receptor [5]): 9130 nM

C[C@@H]1[C@@H]2Cc3ccc(O)cc3[C@]1(C)CCN2Cc1ccccc1F
Ki [7]: 0.97 nM

C[C@@H]1[C@@H]2Cc3ccc(O)cc3[C@]1(C)CCN2Cc1ccccc1
Ki [7]: 0.67 nM | Ki (Mu-type opioid receptor [8]): 1610 nM | Ratio Ki [9]: 2400 | Ki [10]: 1710 nM | Ratio Ki [11]: 2600

C=CCCN1CC[C@]2(C)c3cc(O)ccc3C[C@@H]1[C@@H]2C
Ki [6]: 620 nM

C[C@@H]1[C@@H]2Cc3ccc(N)cc3[C@]1(C)CCN2Cc1ccccc1
Ki [12]: 1.47 nM | Ki [13]: 832 nM | Ratio Ki [14]: 570

CO[C@H](C)CN1CC[C@@]2(C)c3ccc(O)cc3C[C@@H]1C2(C)C
Ki [15]: 4.5 nM | LD50 [16]: 0.4 mg/kg | half-life [17]: 4 h

COC(=O)[C@]1(c2ccccc2)C[C@@H]1CN1CC[C@]2(C)c3cc(O)ccc3C[C@@H]1[C@@H]2C
Ki (Mu-type opioid receptor [18]): > 25000 nM | Ki [19]: > 25000 nM | Ki [20]: 240 nM

C[C@@H]1[C@@H]2Cc3ccccc3[C@]1(C)CCN2CCN1CCCCC1
Ki [21]: > 10000 nM | Ki [22]: 20 nM | Ki [23]: 130 nM

CC(C)=CCN1CC[C@@]2(C)c3c(ccc(O)c3Br)C[C@H]1[C@H]2C
Ki [1]: 2.49 nM | Ki [2]: 283 nM

COC(=O)[C@]1(c2ccc(Cl)cc2)C[C@@H]1CN1CC[C@]2(C)c3cc(O)ccc3C[C@@H]1[C@@H]2C
Ki [22]: 1050 nM | Ki (Mu-type opioid receptor [18]): > 25000 nM | Ki [19]: > 25000 nM | Ki [20]: 0.41 nM

C[C@@H]1[C@@H]2Cc3ccc(O)cc3[C@]1(C)CCN2CCN(C)c1ccccc1
Ki [3]: 124 nM | Ki [4]: 5.6 nM | Ki (Mu-type opioid receptor [5]): 28.8 nM

C[C@@H]1[C@@H]2Cc3ccc(O)cc3[C@]1(C)CCN2CCN1CCOCC1
Ki [3]: 300 nM | Ki [4]: 13.4 nM | Ki (Mu-type opioid receptor [5]): 8170 nM | ED50 [24]: 0.82 mg/kg

C[C@@H]1[C@@H]2Cc3ccccc3[C@]1(C)CCN2CCN(C)c1ccccc1
Ki [21]: > 10000 nM | Ki [22]: 91 nM | Ki [23]: 157 nM

C[C@@H]1[C@@H]2Cc3ccc(O)c(Br)c3[C@]1(C)CCN2Cc1ccccc1
Ki [1]: 1.75 nM | Ki [2]: 346 nM | Ratio Ki [25]: 200

C[C@@H]1[C@@H]2Cc3ccccc3[C@]1(C)CCN2CCN1CCCC1
Ki [21]: 6400 nM | Ki [22]: 34 nM | Ki [23]: 42 nM

CC(C)=CCN1CC[C@@]2(C)c3cc(O)ccc3C[C@H]1[C@H]2C
Ki (Mu-type opioid receptor [5]): 2370 nM

C[C@@H]1[C@@H]2Cc3ccc(O)cc3[C@]1(C)CCN2Cc1ccc(F)cc1
Ki [7]: 1.45 nM

C[C@@H]1[C@@H]2CCN(Cc3ccccc3)[C@@H]1Cc1ccccc12
Ki [4]: 0.96 nM | Ki [26]: 131 nM | Ratio Ki [27]: 136

COC(=O)[C@]1(c2ccccc2)C[C@@H]1CN1CC[C@@]2(C)c3cc(O)ccc3C[C@H]1[C@H]2C
Ki [22]: 66.7 nM | Ki (Mu-type opioid receptor [18]): > 25000 nM | Ki [19]: > 1000 nM | Ki [20]: > 1000 nM

C=CCN1CC[C@]2(C)c3cc(O)ccc3C[C@@H]1[C@@H]2C
Ki [6]: 3200 nM

CC(C)[C@@H]1[C@@H]2CCN(Cc3ccccc3)[C@@H]1Cc1ccccc12
Ki [4]: 31.7 nM | Ki [26]: 133 nM | Ratio Ki [27]: 4

C[C@@H]1[C@@H]2Cc3ccc(N(C)C)cc3[C@]1(C)CCN2Cc1ccccc1
Ki [12]: 1.75 nM | Ki [13]: 258 nM | Ratio Ki [14]: 150

C[C@@H]1[C@@H]2Cc3ccc(O)cc3[C@]1(C)CCN2CCN1CCCCC1
Ki [3]: 114 nM | Ki [4]: 9.6 nM | Ki (Mu-type opioid receptor [5]): 12000 nM | ED50 [24]: 0.88 mg/kg

C[C@@H]1[C@@H]2Cc3ccc(O)cc3[C@]1(C)CCN2CCNc1ccccc1
Ki [3]: 111 nM | Ki [4]: 5.9 nM | Ki (Mu-type opioid receptor [5]): 79.8 nM

CC[C@@H]1[C@@H]2CCN(Cc3ccccc3)[C@@H]1Cc1ccccc12
Ki [4]: 3.36 nM | Ki [26]: 115 nM | Ratio Ki [27]: 34

CC(C)=CCN1CC[C@@]2(C)c3cc(F)ccc3C[C@H]1[C@H]2C
Ki [12]: 1.48 nM | Ki [13]: 154 nM | Ratio Ki [14]: 104

CO[C@@H](C)CN1CC[C@@]2(C)c3cccc(O)c3C[C@@H]1C2(C)C
Ki [28]: 789 nM | IC50 [29]: 39 nM | ED50 (Mus musculus [30]): 1 mg/kg

C=CCN1CC[C@@]2(C)c3cc(O)ccc3C[C@H]1[C@H]2C
Ki (Mu-type opioid receptor [8]): > 10000 nM | Ki [22]: 169 nM | Ki (Mu-type opioid receptor [18]): > 1000 nM | Ki [19]: > 1000 nM | Ki [20]: > 1000 nM

C[C@@H]1[C@@H]2Cc3ccc(O)c(Cl)c3[C@]1(C)CCN2Cc1ccccc1
Ki [1]: 1.72 nM | Ki [2]: 764 nM | Ratio Ki [25]: 440

COC(=O)C1(c2ccccc2)CC1CN1CC[C@@]2(C)c3cc(O)ccc3C[C@H]1[C@H]2C (mixture of isomers)
Ki [22]: 1380 nM | Ki (Mu-type opioid receptor [18]): > 1000 nM | Ki [19]: > 1000 nM | Ki [20]: > 1000 nM

CC(C)=CCN1CCN(c2ccc3c(c2)[C@H]2C[C@@H]3CCN2C(=O)OCc2ccccc2)CC1
Ki [31]: 23 nM

C[C@@H](CN1CC[C@@]2(C)c3cccc(O)c3C[C@@H]1C2(C)C)OCc1ccccc1 [CROBENETINE]
Ki [28]: 43 nM | IC50 [29]: 322 nM | ED50 (Mus musculus [32]): 6.1 mg/kg

C[C@@H]1[C@@H]2Cc3ccccc3[C@]1(C)CCN2CCNc1ccccc1
Ki [21]: 6500 nM | Ki [22]: 21 nM | Ki [23]: 144 nM

COC(=O)[C@@]1(c2ccccc2)C[C@H]1CN1CC[C@@]2(C)c3cc(O)ccc3C[C@H]1[C@H]2C
Ki [22]: 75 nM | Ki (Mu-type opioid receptor [18]): > 1000 nM | Ki [19]: > 1000 nM | Ki [20]: > 1000 nM

C/C=C/CN1CCN(c2ccc3c(c2)[C@H]2C[C@@H]3CCN2C(=O)OCc2ccccc2)CC1
Ki [31]: 16 nM
